This note sets out measurements from patent US20140323504A1, “Pyrazolo[4,3-c]Pyridine Derivatives As Kinase Inhibitors” (Cellzome Limited, priority 2011, published 2014).

The target in test [1] is T1, BTK (Homo sapiens, UniProt Q06187).
T1 construct: purchased ProQinase GmbH, Freiburg, Germany
As to the kind of experiment: Radiometric protein kinase assay (33PanQinase, ProQinase), BTK. It is filed as biochemical. The note with it: read-out: BTK enzyme assay IC50. As for the experimental part: (§1) A radiometric protein kinase assay (^33PanQinase® Activity Assay; ProQinase GmbH, Freiburg, Germany) was used for measuring the kinase activity of the protein kinases BLK, BTK, ITK and JAK3. All kinase assays were performed in 96-well FlashPlates™ from PerkinElmer (Boston, Mass., USA) in a 50 μl reaction volume. The reaction cocktail was pipetted in four steps in the following order: • 20 μl of assay buffer (standard buffer) • 5 μl of ATP solution (in H2O) • 5 μl of test compound (in 10% DMSO) • 10 μl of substrate/10 μl of enzyme solution (premixed)
(§2) The reaction cocktails were incubated at 30° C. for 60 minutes. The reaction was stopped with 50 μl of 2% (v/v) H3PO4, plates were aspirated and washed two times with 200 μl 0.9% (w/v) NaCl. Incorporation of ^33Pi was determined with a microplate scintillation counter (Microbeta, Wallac). All assays were performed with a BeckmanCoulter/SAGIAN™ Core System.

Test [2] deals with T2, JAK3 (Homo sapiens, UniProt P52333).
T2 sequence (P52333 1-1124): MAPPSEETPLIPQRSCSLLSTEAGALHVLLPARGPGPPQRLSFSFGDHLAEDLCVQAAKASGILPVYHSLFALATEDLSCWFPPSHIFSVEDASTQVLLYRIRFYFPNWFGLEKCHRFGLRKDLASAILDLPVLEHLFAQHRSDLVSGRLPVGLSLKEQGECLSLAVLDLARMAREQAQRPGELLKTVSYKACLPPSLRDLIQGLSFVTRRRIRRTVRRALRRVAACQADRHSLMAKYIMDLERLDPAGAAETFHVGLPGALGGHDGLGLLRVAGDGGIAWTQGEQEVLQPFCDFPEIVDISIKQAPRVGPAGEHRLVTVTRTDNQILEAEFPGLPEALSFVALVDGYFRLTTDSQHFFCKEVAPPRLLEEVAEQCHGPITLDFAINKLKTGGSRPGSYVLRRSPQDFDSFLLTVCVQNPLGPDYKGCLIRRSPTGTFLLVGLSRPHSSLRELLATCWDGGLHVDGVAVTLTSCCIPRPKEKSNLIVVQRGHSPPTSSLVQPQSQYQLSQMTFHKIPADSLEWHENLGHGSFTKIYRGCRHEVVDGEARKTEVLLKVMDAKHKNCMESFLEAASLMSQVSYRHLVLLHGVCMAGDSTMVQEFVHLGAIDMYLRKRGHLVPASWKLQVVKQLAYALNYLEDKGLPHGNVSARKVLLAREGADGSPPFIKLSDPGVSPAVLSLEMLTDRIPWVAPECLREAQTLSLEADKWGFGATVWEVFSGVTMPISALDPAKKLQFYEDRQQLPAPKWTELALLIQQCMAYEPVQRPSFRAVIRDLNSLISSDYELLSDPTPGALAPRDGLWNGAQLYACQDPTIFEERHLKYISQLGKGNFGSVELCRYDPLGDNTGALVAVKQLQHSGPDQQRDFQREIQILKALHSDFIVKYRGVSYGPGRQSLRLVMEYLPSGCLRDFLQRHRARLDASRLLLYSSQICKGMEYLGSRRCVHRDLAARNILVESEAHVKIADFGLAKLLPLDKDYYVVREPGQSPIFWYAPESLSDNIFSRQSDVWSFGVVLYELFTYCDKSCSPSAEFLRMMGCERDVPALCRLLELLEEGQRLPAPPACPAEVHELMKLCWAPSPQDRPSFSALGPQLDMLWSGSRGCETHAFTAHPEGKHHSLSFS
As to the kind of experiment: Radiometric protein kinase assay (33PanQinase, ProQinase), JAK3. It is filed as biochemical. Set-up: endogenous in cells; host or cells: mixed Molt4/Ramos cell lysate (1:2). The note with it: read-out: JAK3 enzyme assay IC50. As for the experimental part: as §1, §2

Test [3] deals with STAT5 phosphorylation in IL-2 stimulated YT cells. The test can be described thus: pSTAT5 cell assay (IL-2 stimulated YT cells, AlphaScreen). It is filed as cell-based. The note with it: IL-2 stimulated human YT cells, 1 h compound incubation. The source says: STAT5 phosphorylation represents one of the proximal events in the signalling cascade downstream of JAK3 activation. Therefore STAT5 phosphorylation is an appropriate readout to assess the mechanistic effect of JAK3 inhibition. Stimulation of human YT cells, an NK-like cell line, with interleukin-2 (IL-2) results in phosphorylation of STATS at tyrosine residue 694 (Tyr694) that can be quantitatively measured by immunodetection with specific antibodies and an appropriate detection method, in this case AlphaScreen assay technology.
Human YT cells were grown in RPMI medium (Lonza, BE12-167) with 2 mM L-Glutamine (Invitrogen, 25030-024) and 10% heat-inactivated FBS (Invitrogen, 10106-169) and kept in a humidified incubator (37° C., 5% CO2). Cells were harvested by centrifugation, washed once with HBSS (Invitrogen, 14180-046), resuspended in HESS at 1.5×10^6 cells/ml and 0.9×10^4 cells were seeded in 6 μl per well in a 96 well White plate (PerkinElmer, 6005569).
Test compounds were dissolved in DMSO and a 1:3 dilution series (9 steps) was prepared. To generate a dose response curve, […] of fourfold concentrated compound in 4% DMSO/HBSS were added to each cell sample in the 96 well plate resulting in a final DMSO concentration of 1% DMSO. Cells were incubated for one hour in a humidified incubator (37° C., 5% CO2). To each well 3 μl of a fourfold concentrated IL-2 solution (Recombinant human IL-2, Peprotech 200-02; 120 nM solution in HBSS) was added and incubated for 30 minutes at room temperature. Cells were lysed by adding 3 μl of 5× lysis buffer (SureFire lysis buffer; Perkin Elmer, TGRS5S10K) and incubated for 10 minutes at room temperature with gentle shaking.
For signal detection by AlphaScreen® technology the SureFire phospho-STAT5 (Tyr694Tyr699) kit was used according to instructions provided by the manufacturer (Perkin Elmer, TGRS5S10K). Acceptor beads were added as recommended by the manufacturer (Reactivation buffer/Activation buffer/Acceptor beads at a ratio of 40:10:1) and incubated at room temperature for 1.5 hours with gentle shaking. Then donor beads were added as recommended (Dilution buffer/Donor beads at a ratio of 20:1) and incubated at room temperature for 1.5 hours with gentle shaking. Plates were read on an Envision instrument (Perkin Elmer) with the AlphaScreen protocol. Data were analysed in BioAssay using the nonlinear regression for a sigmoidal dose-response with a variable slope.
For orientation: In Alpha technology, singlet oxygen from a donor bead excites a nearby acceptor bead.

T1 sequence (Q06187 whole entry): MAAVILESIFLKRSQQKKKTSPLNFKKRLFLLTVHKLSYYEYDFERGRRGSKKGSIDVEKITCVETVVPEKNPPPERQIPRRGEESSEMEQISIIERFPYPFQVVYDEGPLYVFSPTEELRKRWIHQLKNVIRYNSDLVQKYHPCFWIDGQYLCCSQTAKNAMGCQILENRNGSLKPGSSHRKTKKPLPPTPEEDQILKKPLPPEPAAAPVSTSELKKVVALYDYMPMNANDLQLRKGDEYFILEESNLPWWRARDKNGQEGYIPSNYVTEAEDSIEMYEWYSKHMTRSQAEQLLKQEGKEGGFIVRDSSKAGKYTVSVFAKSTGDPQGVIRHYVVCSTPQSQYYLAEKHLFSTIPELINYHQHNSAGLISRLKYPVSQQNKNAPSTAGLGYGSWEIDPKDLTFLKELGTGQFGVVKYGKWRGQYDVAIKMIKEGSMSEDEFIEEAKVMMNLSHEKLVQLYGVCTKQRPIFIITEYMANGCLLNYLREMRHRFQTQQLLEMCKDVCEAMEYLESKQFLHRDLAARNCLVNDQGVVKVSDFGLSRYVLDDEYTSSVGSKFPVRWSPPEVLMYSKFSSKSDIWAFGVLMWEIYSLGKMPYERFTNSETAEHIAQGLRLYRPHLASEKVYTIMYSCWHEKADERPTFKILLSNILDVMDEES

As usually defined, the IC50 is the point on the concentration scale where inhibition reaches its midpoint. On to `CC(=O)Nc1cccc(Cn2ncc3cnc(Nc4cnn(C)c4)nc32)c1` [compound 2, N-(3-((6-((1-methyl-1H-pyrazol-4-yl)amino)-1H-pyrazolo[3,4-d]pyrimidin-1-yl)methyl)phenyl)acetamide, reference compound], for which the figures for the half-maximal inhibitory concentration (IC50) in test [1] and in test [2] were 2 µM and 0.29 µM, respectively.

In test [3], `C=C(C)C(=O)Nc1cccc(Cn2ncc3cnc(Nc4cnn(C)c4)nc32)c1` [Example 5, N-(3-((6-((1-Methyl-1H-pyrazol-4-yl)amino)-1H-pyrazolo[3,4-d]pyrimidin-1-yl)methyl)phenyl)methacrylamide] had a half-maximal inhibitory concentration (IC50) of 2 µM.

For `C=CS(=O)(=O)Nc1cccc(Cn2ccc3cnc(Nc4cnn(C)c4)nc32)c1` [Example 7, N-(3-((2-((1-Methyl-1H-pyrazol-4-yl)amino)-7H-pyrrolo[2,3-d]pyrimidin-7-yl)methyl)phenyl)ethenesulfonamide], the IC50 in test [3] was determined as 0.079 µM.

Take `C=CS(=O)(=O)Nc1cccc(Cn2ncc3cnc(Nc4cnn(C)c4)nc32)c1` [Example 4, N-(3-((6-((1-Methyl-1H-pyrazol-4-yl)amino)-1H-pyrazolo[3,4-d]pyrimidin-1-yl)methyl)phenyl)ethenesulfonamide]: the 50% inhibitory concentration (IC50) in test [1] is 0.02 µM; in test [2], 0.007 µM; in test [3], 0.074 µM.

Turning to `C#CC(=O)Nc1cccc(Cn2ncc3cnc(Nc4cnn(C)c4)nc32)c1` [Example 3, N-(3-((6-((1-Methyl-1H-pyrazol-4-yl)amino)-1H-pyrazolo[3,4-d]pyrimidin-1-yl)methyl)phenyl)propiolamide], the IC50 in test [1] was determined as 0.001 µM; in test [2] it was 0.004 µM; in test [3], 0.033 µM.

Turning to `C=CC(=O)Nc1cc(Cn2ncc3cnc(Nc4cnn(C)c4)nc32)ccc1F` [Example 2, […]], the IC50 came out at 0.323 µM in test [1] and 0.378 µM in test [3].

Consider `C=CC(=O)Nc1cccc(Cn2ncc3cnc(Nc4cnn(C)c4)nc32)c1` [Example 1, N-(3-((6-((1-Methyl-1H-pyrazol-4-yl)amino)-1H-pyrazolo[3,4-d]pyrimidin-1-yl)methyl)phenyl)acrylamide], for which the values for the half-inhibitory concentration (IC50) in test [1], in test [2] and in test [3] were 0.02 µM, 0.003 µM and 0.031 µM, respectively.
